# Results as given in patent publication US20040175691A1, “Use of the KCNQ2 and KCNQ3 genes for the discovery of agents useful in the treatment of neurological disorders” (priority 1998, published 2004).
# How the values were obtained:
# KQT1 = target: T1, KQT1 (Homo sapiens, UniProt P51787); assay: Blockade of cloned KQT1 channel in oocytes; type: cell-based
# T1 construct: expressed in transfected cells; host or cells: oocytes (Xenopus)
# hKCNQ2 potassium channel = target: T2, hKCNQ2 potassium channel (Homo sapiens, UniProt O43526, DEL417-446); assay: Membrane potential-evoked fluorescence (FLIPR, DiBAC) in HEK 293E cells stably expressing hKCNQ2; type: cell-based; conditions: DiBAC-loaded HEK 293E hKCNQ2 cells, FIG. 6
# T2 construct: Full-length hKCNQ2 cDNAs were amplified from adult human brain cDNA; expressed in transfected cells; host or cells: 293 EBNA (HEK 293E) cells, episomal plasmid pm3AR-hKCNQ2-1, hygromycin B selection
# Protocol: The ability of KCNQ2 modulators to alter membrane potential was assessed using a fluorescence imaging plate reader (FLIPR). Cultured HEK 293E cells expressing hKCNQ2 channels are plated on poly-D-lysine-coated 96-well Costar microplates (#3603) at 300,000-750,000 cells/ml and allowed to reach confluence in DMEM (with 10% FBS and 250 ug/ml hygromycin B) at 37° C. and 5% CO2. After reaching confluence, growth medium is removed, replaced with a standard Hank's balanced salt solution containing 5 uM dibac(4)3, bis-oxonol (Molecular Probes # B-438) at 37° C. The cell plate is then placed in the recording chamber (equilibrated to 37° C.) of a fluorescence imaging plate reader (FLIPR; Molecular Devices) along with two drug plates (one containing standard Hank's balanced salt solution+dibac and the other containing standard Hank's balanced salt solution+dibac+test compound at various experimental concentrations).
# These cells were loaded with the voltage-sensitive fluorescent dye, DiBAC, that distributes across cell membranes in a voltage-dependent manner. As cells depolarize (become more positive inside), more dye enters the cells and an increase in fluorescence occurs.
# In FIG. 7, the relative effects of several M-current modulators on the flourescence of HEK 293E cells stably expressing the hKCNQ2 potassium channel is shown. These cells were loaded with the voltage-sensitive fluorescent dye, DiBAC, that distributes across cell membranes in a voltage-dependent manner. As cells depolarize, more dye enters the cells and an increase in fluorescence occurs. Conversely, as cells hyperpolarize (become more negative inside), more dye leaves the cells and a decrease in fluorescence occurs.
# rat hippocampal neurons = rat hippocampal neurons (Lampe & Brown 1991); cited from earlier work
# [1] = system: phasic sympathetic neurons; assay: Firing properties of phasic sympathetic neurons from the SCG; type: cell-based, rat; conditions: 10 μM
# Protocol: Method: Recordings of the M-current in sympathetic neurons in intact ganglia were performed at room temperature as described previously (Wang and McKinnon, 1995). The standard extracellular recording solution was: NaCl (133 mM, KCl (4.7 mM), NaH2PO4 (1.3 mM), NaHCO3 (16.3 mM), CaCl2 (2 mM), MgCl2 (1.2 mM) and glucose (1.4 g/liter), bubbled with 95% O2-5% CO2 to give pH 7.2-7.4.
# T1 sequence (P51787 whole entry): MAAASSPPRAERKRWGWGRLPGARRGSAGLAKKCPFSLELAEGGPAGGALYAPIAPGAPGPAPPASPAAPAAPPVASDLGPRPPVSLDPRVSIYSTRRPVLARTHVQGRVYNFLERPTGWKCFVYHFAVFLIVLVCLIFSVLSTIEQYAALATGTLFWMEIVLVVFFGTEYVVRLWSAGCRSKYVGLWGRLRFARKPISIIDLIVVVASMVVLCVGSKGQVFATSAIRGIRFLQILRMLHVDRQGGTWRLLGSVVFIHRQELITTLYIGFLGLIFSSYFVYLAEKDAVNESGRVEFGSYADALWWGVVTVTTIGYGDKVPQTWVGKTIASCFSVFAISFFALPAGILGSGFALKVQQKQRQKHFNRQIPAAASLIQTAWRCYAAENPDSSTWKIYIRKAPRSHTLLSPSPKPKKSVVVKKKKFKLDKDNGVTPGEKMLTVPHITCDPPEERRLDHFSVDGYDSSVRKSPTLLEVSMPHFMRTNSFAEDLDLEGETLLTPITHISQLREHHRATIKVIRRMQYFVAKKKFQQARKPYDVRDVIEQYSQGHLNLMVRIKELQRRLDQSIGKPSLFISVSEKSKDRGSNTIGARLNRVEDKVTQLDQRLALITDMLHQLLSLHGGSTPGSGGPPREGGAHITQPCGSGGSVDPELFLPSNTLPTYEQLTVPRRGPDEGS
IC50 (KQT1) [µM],Compound,Change in fluorescence (membrane depolarization) (hKCNQ2 potassium channel),Spike frequency adaptation (rat hippocampal neurons),Effect on firing properties of phasic neurons [1]
8.9 ± 0.9,"O=C1N(c2ccccc2)c2ccccc2C1(Cc1ccncc1)Cc1ccncc1 [Linopirdine, 3,3-bis(4-pyridinylmethyl)-1-phenylindolin-2-one]",time- and concentration-dependent increase in flourescence,reduced spike frequency adaptation,
,"O=C1c2ccccc2C(Cc2ccncc2)(Cc2ccncc2)c2ccccc21 [XE991, 10,10-bis(4-pyridinylmethyl)-9(10H)-anthracenone]",,,converts the firing properties from phasic to tonic
